The source of these data is patent US8663658B2, “Revaprazan-containing solid dispersion and process for the preparation thereof” (Yuhan Corporation, priority 2006, dated 2014).

Data set [1] can be described thus: Solubility of revaprazan-containing solid dispersion in purified water. Format: physicochemical. The conditions noted are these: thermodynamic from solid, 25° C., solid dispersion containing 1 g revaprazan in 50 ml, stirred up to 6 hours, UV 270 nm. Here is the method:
Solubility of a revaprazan-containing solid dispersion was measured in purified water. A solid dispersion containing 1 g of revaprazan was added to a beaker containing 50 ml of purified water, which was then strongly stirred using a magnetic stirrer at 25° C. in a water bath for 6 hours. After 1, 2, and 6 hours, each sample was collected and filtered using a 0.45 μm filter. The filtrate was diluted with methanol having such an amount that absorbance of the filtrate is in the range from 0.2 to 1.0. Then, absorbance of the diluted filtrate was measured at 270 nm using a UV spectrophotometer (Agilent 8453, Agilent technologies, USA). From the obtained absorbance value, concentrations of revaprazan were obtained using a standard curve.
About 20 mg of revaprazan standard was dissolved in methanol until the total volume of the solution reached 10 ml. 1 ml of the resultant solution was added to a 100 ml flask and then purified water was added thereto to obtain a standard stock solution. The standard stock solution was diluted with purified water to obtain 2 μg/ml, 5 μg/ml, 8 μg/ml, and 10 μg/ml of standard solution. Each absorbance of the standard solutions was measured at an absorption maximum wavelength of 270 nm to obtain a standard curve. The standard curve was moderately linear passing through almost (0.0) (coefficient of correlation r^2>0.98).

Data set [2] in a line: Adhesiveness and agglutination test (Carr's index from bulk and tapped density). Format: physicochemical. As to the method:
The bulk density and tapped density of revaprazan powder and the surface-modified solid dispersions prepared according to Examples 3 and 6 were measured and their Carr's indexes were obtained in order to measure flowability thereof. About 3 g of a solid dispersion was carefully added to a plastic measuring cylinder and the volume thereof was measured to obtain the bulk density. And then, this was subjected to tapping 3,000 times using a tapped density meter to measure the volume and the tapped density was obtained. From the obtained bulk density and tapped density, Carr's index was calculated in order to evaluate flowability.

For data set [3] the following is noted: background art; cited from earlier work.

≈ marks a conversion by molar mass, not a printed value. Like-named read-outs stand apart in the source and are kept apart here.

In turn, `Cc1nc(Nc2ccc(F)cc2)nc(N2CCc3ccccc3C2C)c1C` (stereo not shown) [Revaprazan powder, 5,6-dimethyl-2-(4-fluorophenylamino)-4-(1-methyl-1,2,3,4-tetrahydroisoquinolin-2-yl)pyrimidine] came in with a solubility in data set [1] of 173 µg/mL (≈ 477 µM). For the same molecule, the “Carr's index” value was no less than 40% in data set [2]; 41.2 in data set [2] (from bulk density and tapped density (3,000 taps), flowability). Further, the water-solubility entry in data set [3] is “less than 0.2 mg/mL”.
